Test results from patent US8017386B2, “Divinyl ether synthase gene and protein, and uses thereof” (priority 2000, dated 2011).

Key:
[1] = molecular target: T1, CYP74D1 (Solanum lycopersicum, UniProt Q9FPM6)
T1 sequence (Q9FPM6 10-478 limits assumed): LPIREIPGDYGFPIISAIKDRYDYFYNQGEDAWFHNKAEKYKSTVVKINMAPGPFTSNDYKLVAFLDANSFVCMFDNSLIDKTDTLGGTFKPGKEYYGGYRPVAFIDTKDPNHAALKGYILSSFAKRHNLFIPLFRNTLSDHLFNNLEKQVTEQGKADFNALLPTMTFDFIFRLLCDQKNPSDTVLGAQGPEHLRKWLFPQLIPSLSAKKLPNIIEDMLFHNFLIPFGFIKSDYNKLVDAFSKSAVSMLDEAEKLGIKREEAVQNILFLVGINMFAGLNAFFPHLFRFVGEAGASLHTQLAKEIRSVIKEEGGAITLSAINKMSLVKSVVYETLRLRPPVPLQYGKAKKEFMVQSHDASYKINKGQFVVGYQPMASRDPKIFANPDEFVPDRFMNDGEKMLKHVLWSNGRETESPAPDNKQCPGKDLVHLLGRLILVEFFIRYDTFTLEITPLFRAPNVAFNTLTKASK

[2] = molecular target: T2, CYP74D1 (Solanum lycopersicum, UniProt Q9FPM6); assay: Kinetic assays with affinity purified CYP74D-6H (decrease in A234); conditions: for estimated turnover rate (kcat): purified CYP74D-6H, assuming the total protein content to be active; for Km: read-out: apparent Km, recombinant DES (summary in description)
T2 sequence (Q9FPM6 whole entry): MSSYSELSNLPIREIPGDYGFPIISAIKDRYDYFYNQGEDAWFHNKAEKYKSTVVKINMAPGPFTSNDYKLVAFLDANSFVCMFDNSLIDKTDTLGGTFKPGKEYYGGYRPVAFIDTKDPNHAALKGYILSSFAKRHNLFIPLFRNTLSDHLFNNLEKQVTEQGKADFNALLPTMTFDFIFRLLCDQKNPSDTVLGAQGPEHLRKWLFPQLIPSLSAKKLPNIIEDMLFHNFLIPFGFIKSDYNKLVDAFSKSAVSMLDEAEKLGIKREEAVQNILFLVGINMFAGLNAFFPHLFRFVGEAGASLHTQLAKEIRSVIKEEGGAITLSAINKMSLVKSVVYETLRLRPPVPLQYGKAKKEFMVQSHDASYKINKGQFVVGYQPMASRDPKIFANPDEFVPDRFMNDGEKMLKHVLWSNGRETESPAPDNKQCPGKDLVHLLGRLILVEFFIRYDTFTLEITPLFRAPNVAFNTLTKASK

[3] = molecular target: T2, CYP74D1; remark: listed apart in the source

| SMILES | metabolism by extracts containing 6H-CYP74D (in words) [1] | estimated turnover rate (kcat) [2] [s⁻¹] | Km [2] [µM] | metabolized at % of the rate observed for 9-HPOD [3] [%] |
| --- | --- | --- | --- | --- |
| CCCCC/C=C\C=C\[C@H](CCCCCCCC(=O)O)OO [9-HPOD, 9(S)-hydroperoxy-10(E),12(Z)-octadecadienoic acid] | efficiently metabolized | 890 | ~67 | – |
| CC/C=C\C/C=C\C=C\[C@H](CCCCCCCC(=O)O)OO [9-HPOT, 9(S)-hydroperoxy-10(E),12(Z),15(Z)-octadecatrienoic acid] | efficiently metabolized | 500 | ~48 | – |
| CCCCC[C@@H](/C=C/C=C\CCCCCCCC(=O)O)OO [13-HPOD, 13(S)-hydroperoxy-9(Z),11(E)-octadecadienoic acid] | poor substrates | – | – | – |
| CC/C=C\C[C@@H](/C=C/C=C\CCCCCCCC(=O)O)OO [13-HPOT, 13(S)-hydroperoxy-9(Z),11(E),15(Z)-octadecatrienoic acid] | poor substrates | – | – | < 5 |
